The values below come from ChEMBL document CHEMBL4406909, “Synthesis and evaluation of 1,3,5-triazine derivatives as sunscreens useful to prevent skin cancer” (Bioorg Med Chem Lett, 2019).

The nature of series [1]: Photoprotection activity against UV radiation assessed as ratio of UVA to UVB.
The nature of series [2]: Antioxidant activity assessed as DPPH free radical scavenging activity at 400 uM incubated for 60 mins by spectrophotometric method relative to control. Format: functional.
Series [3] in a line: Antioxidant activity assessed as DPPH free radical scavenging activity at 300 uM incubated for 60 mins by spectrophotometric method relative to control. The series is classed as functional. (In general: Loss of DPPH colour is used to gauge radical scavenging.)
Series [4] in a line: Antioxidant activity assessed as DPPH free radical scavenging activity at 200 uM incubated for 60 mins by spectrophotometric method relative to control. Format: functional.
Series [5] is described as follows: Antioxidant activity assessed as DPPH free radical scavenging activity at 100 uM incubated for 60 mins by spectrophotometric method relative to control. Format: functional.
Series [6] is described as follows: Thermal stability of compound in DMSO/methanol assessed as onset temperature by UV spectroscopic method. Format: physicochemical.
Series [7] in a line: Thermal stability of compound in DMSO/methanol assessed as decomposition temperature by UV spectroscopic method. Format: physicochemical.
Series [8] is described as follows: Thermal stability of compound in DMSO/methanol assessed as mass loss by UV spectroscopic method. Particulars: read-out: Drug degradation. Format: physicochemical.
Series [9] is described as follows: Photoprotection activity against UV radiation.

`O=C(N/N=C/c1ccc(Oc2nc(Oc3ccc(/C=N/NC(=O)c4cccc(O)c4)cc3)nc(Oc3ccc(/C=N/NC(=O)c4cccc(O)c4)cc3)n2)cc1)c1cccc(O)c1`: the Ratio in series [1] came to 0.4. Also, the Activity in [2] was found to be 6.3%; in [3], 5.8%; in series [4], 4.4%; in [5], 4.2%. For the same compound, the T in series [6] came to 248.22 °C; in series [7], 297.87 °C. The degraded in [8] is 18.7%. Besides, the SPF in [9] is 4. The compound also gave a UVAPF in series [9] of 2.
In the case of `O=C(N/N=C/c1ccc(Oc2nc(Oc3ccc(/C=N/NC(=O)c4ccncc4)cc3)nc(Oc3ccc(/C=N/NC(=O)c4ccncc4)cc3)n2)cc1)c1ccncc1`, in [1], the Ratio is 0.4. In addition, the Activity came to 6.1% in series [2], 2.4% in [3], 0.5% in series [4] and 0% in [5]. The T was 235.6 °C in series [6] and 236.25 °C in series [7]. Besides, the degraded in [8] stood at 36.8%. Moreover, the SPF in [9] stood at 5. For the same compound, the UVAPF in series [9] amounted to 3.
`CCCCC(CC)COC(=O)c1ccc(Nc2nc(Nc3ccc(C(=O)OCC(CC)CCCC)cc3)nc(Nc3ccc(C(=O)OCC(CC)CCCC)cc3)n2)cc1` (stereo not given): in series [1], the Ratio was determined as 0.8. The Activity in series [2] was 3.5%; in series [3], 2.6%; in series [4], 1.6%; in series [5], 0%. The T in [6] came to 119.99 °C; in series [7], 232.29 °C. Also, in series [8], the degraded is 68.7%. In series [9], the SPF was determined as 3. Further, the UVAPF in series [9] is 3.
`Oc1ccc(/C=C/c2cc(O)cc(O)c2)cc1` [RESVERATROL]: in series [1], the Ratio is 0.7. Moreover, the Activity in series [2] worked out at 62.2%; in [3], 56.2%; in series [4] it was 55.9%; in [5], 46.8%. Further, the T was found to be 263.46 °C in series [6] and 266.95 °C in [7]. Also, in [8], the degraded is 32.9%. In series [9], this compound registered an SPF of 2. This compound displayed a UVAPF in series [9] of 2.
For `CC(C)(C)c1ccc(C(=O)N/N=C/c2ccc(Oc3nc(Oc4ccc(/C=N/NC(=O)c5ccc(C(C)(C)C)cc5)cc4)nc(Oc4ccc(/C=N/NC(=O)c5ccc(C(C)(C)C)cc5)cc4)n3)cc2)cc1`, the Ratio in series [1] was found to be 0.5. Moreover, the Activity was found to be 5.9% in series [2], 4.8% in series [3], 4.3% in [4] and 4% in series [5]. In addition, the values for the T in series [6] and in series [7] were 324.37 °C and 326.22 °C, respectively. Moreover, the degraded in series [8] was 41.2%. Besides, in series [9], the SPF was 14. This compound came in with a UVAPF in [9] of 7.
Consider `O=C(N/N=C/c1ccc(Oc2nc(Oc3ccc(/C=N/NC(=O)c4ccccc4O)cc3)nc(Oc3ccc(/C=N/NC(=O)c4ccccc4O)cc3)n2)cc1)c1ccccc1O`, for which the Ratio in series [1] was found to be 0.7. For the same compound, the Activity amounted to 0.8% in series [2], 0.3% in [3], 0% in [4] and 0% in series [5]. The T in [6] worked out at 264.89 °C; in series [7], 269.71 °C. Also, the degraded in [8] was found to be 19.6%. In [9], this compound had an SPF of 17. The compound also gave a UVAPF in series [9] of 13.
As for `O=C(N/N=C/c1ccc(Oc2nc(Oc3ccc(/C=N/NC(=O)c4ccc(O)cc4O)cc3)nc(Oc3ccc(/C=N/NC(=O)c4ccc(O)cc4O)cc3)n2)cc1)c1ccc(O)cc1O`, in [1], the Ratio was determined as 0.5. In addition, the Activity in series [2] was 75.6%; in [3] it was 75.1%; in series [4], 74.2%; in series [5] it was 55.3%. Besides, the T in series [6] came to 218.88 °C; in series [7], 309.94 °C. In addition, in series [8], the degraded is 39.8%. Also, the SPF in series [9] came out at 3. This compound displayed a UVAPF in [9] of 2.
With `O=C(N/N=C/c1ccc(Oc2nc(Oc3ccc(/C=N/NC(=O)c4ccc([N+](=O)[O-])cc4)cc3)nc(Oc3ccc(/C=N/NC(=O)c4ccc([N+](=O)[O-])cc4)cc3)n2)cc1)c1ccc([N+](=O)[O-])cc1`, in series [1], the Ratio stood at 0.8. Besides, the Activity was 3.5% in series [2], 2.7% in [3], 2.2% in series [4] and 0.5% in series [5]. The T in series [6] came to 291.8 °C; in series [7], 304.87 °C. For the same compound, in series [8], the degraded worked out at 37.3%. The same compound yielded an SPF in series [9] of 4. In series [9], the UVAPF is 3.
For `O=C(N/N=C/c1ccc(Oc2nc(Oc3ccc(/C=N/NC(=O)c4ccc(O)cc4)cc3)nc(Oc3ccc(/C=N/NC(=O)c4ccc(O)cc4)cc3)n2)cc1)c1ccc(O)cc1`, the Ratio in series [1] is 0.5. Besides, the Activity in series [2] is 8.2%; in [3] it was 6.7%; in [4] it was 5.6%; in [5], 4.4%. The results for the T in [6] and in series [7] were 267.35 °C and 272.15 °C, respectively. In series [8], the degraded is 11.6%. For the same compound, the SPF in series [9] stood at 7. Also, the UVAPF in series [9] is 4.
Regarding `O=C(N/N=C/c1ccc(Oc2nc(Oc3ccc(/C=N/NC(=O)c4ccccc4)cc3)nc(Oc3ccc(/C=N/NC(=O)c4ccccc4)cc3)n2)cc1)c1ccccc1`, the Ratio in series [1] was found to be 0.6. The Activity is 2.4% in series [2], 2% in [3], 1.3% in series [4] and 0.9% in series [5]. Also, the T in series [6] was found to be 275.89 °C; in series [7], 294.21 °C. Also, the degraded in series [8] was found to be 36.7%. Besides, the SPF in series [9] stood at 9. Besides, the UVAPF in [9] worked out at 5.
